Measured values published in patent US5736565A, “Therapeutic compounds suitable for the treatment of diseases connected with glutathione deficiency, process for their preparation, and pharmaceutical compositions containing same” (Prospa B.V., priority 1992, dated 1998).
“And” between values parts separate entries of the source, which are not always exact repeats. Identical values can stand only once.

Key:
hepatic GSH [1] = experiment: Test No. 1: protection from ethanol acute administration, hepatic GSH content; format: in vivo, male albino Wistar rats; parameters: GSH Content: unit not given beside the values; conditions: liver; ethanol 3 g/kg i.p.; test substance 50 mg/kg
Procedure: Protection from ethanol acute administration […] Male albino Wistar rats weighing between 180 and 230 g were used. All animals were fasted for 24 hours prior to administration of isotonic solution, ethanol or ethanol combined with the test substances. As concerns the test substances, rats were intraperitoneally (i.p.) injected with compound of formula I (R=CH3) at doses of 10, 30, and 50 mg/kg and, for purposes of comparison, with the single constituents of compound (I) (R=CH3), […] (O-PRO) and L-cysteine (CIS), both at a 50 mg/kg dose. One hour after administration of the test substance, ethanol was injected i.p. at the dose of 3 g/kg. Thirty minutes later, the animals were sacrificed by decapitation and their liver was excised. […] Orwar et al., J. Chromatrogr., 556, 39-55 (1991).

hepatic GSH [2] = experiment: Test No. 4: dichloropropane (DCP) intoxication in vivo, hepatic GSH; parameters: species or system rat; conditions: for normalization of hepatic GSH (in words): DCP-treated rats
Procedure: (§1) A test was carried out in vivo on four groups of four rats each, using, as a toxic substance, dichloropropane (DCP), the main constituent of several solvents. DCP is noxious both by ingestion and inhalation and has a notable toxicity to the liver, mediated by an almost total depletion of thiol groups, including those of GSH.
(§2) The experimental model involves the study of the effect of DCP toxicity in the rat, in respect of glutathione (GSH) concentration in the main target tissue: the liver.
(§3) Tests were carried out on four groups of rats. The first group of animals was administered 2 ml DCP/kg dissolved in oil (40% v/v) per os. Twenty-four hours after DCP administration, blood samples were taken for SGPT measurement, while the animals were sacrificed; small portions of liver were then excised and immediately deproteinized by homogenization in 6% PCA. The chromatographic analyses of GSH and GSSG (oxidized glutathione) were performed.
(§4) The second group of animals was treated with the test drug (600 mg/kg i.p.) two hours after DCP administration. The third and fourth groups were treated with N-acetyl-cysteine (NAC) (250 mg/kg i.p.) and, respectively, with glutathione (Tationil^R) (600 mg/kg i.p.).
An evaluation of the protective action of the test drug in respect of glutathione involvement in hepatic protection mechanisms was thus possible.

DCP toxicity in the rat = experiment: Test No. 4: dichloropropane (DCP) intoxication in vivo, death rate and signs; parameters: key to animal 4, symbol in GSH table: --: dead; conditions: DCP + 250 mg/kg i.p.
Procedure: as §1, §2, §3, §4

N[C@@H](CS)C(=O)O [CIS, L-cysteine, reference compound]
GSH Content (hepatic GSH [1]): 2.7 ± 0.3

N[C@@H](CCC(=O)N[C@@H](CS)C(=O)NCC(=O)O)C(=O)O [GSH, glutathione]
normalization of hepatic GSH (in words) (hepatic GSH [2]): could not normalize the values of hepatic GSH
GSH Content (hepatic GSH [1]): 3.5 ± 0.6

CC(=O)N[C@@H](CS)C(=O)O [NAC, N-acetyl-L-cysteine, reference compound]
animal 4, symbol in GSH table (DCP toxicity in the rat): --
normalization of hepatic GSH (in words) (hepatic GSH [2]): could not normalize the values of hepatic GSH
GSH, average values (hepatic GSH [2]; liver, DCP 2 ml/kg per os + 250 mg/kg i.p.): 2.4 nmol/mg protein
GSH, individual animals (hepatic GSH [2]; liver, DCP 2 ml/kg per os + 250 mg/kg i.p., animals 1-3, 250 mg/kg): 2.0 nmol/mg protein and 2.9 nmol/mg protein and 2.3 nmol/mg protein

O=C1CC[C@@H](C(=O)O)N1 [O-PRO, 5-oxy-L-proline, reference compound]
GSH Content (hepatic GSH [1]): 3.4 ± 0.3
